We go through one compound from patent US9594084B2, “Phosphorylation of histones and uses thereof” (H. LEE MOFFITT CANCER CENTER AND RESEARCH INSTITUTE, priority 2012, dated 2017).

SMILES strings stand for the structures.

For one test, the system named is 5-hmC levels. Briefly: Slot blot of genomic DNA with 5-hmC and 5-mC antibodies. The test is classed as cell-based. The protocol:
SBC12, T98G and HEK293 cells were treated with WEE1 inhibitor, MK1775 (0.6 μM, 24 hr). Blots were incubated with 5-hmC and 5-mC antibodies.
Genomic DNA was isolated, blotted by slot blot, followed by immunoblotting with 5-hmC and 5-mC antibodies. […] 5-hmC containing plasmid DNA (Zymo research) was used as positive control.

For test [1], the system named is pY37-H2B marks within IDH2. In words: ChIP-qPCR of pY37-H2B marks within IDH2 in GBM derived cell lines. Conditions: U87. The test is classed as cell-based, human. An excerpt:
FIG. 44a-44f show H2B Tyr37-phosphorylation marks are deposited within IDH2.
To validate the role of WEE1 in IDH2 marking, chromatin from GBM derived cell line U87 was immunoprecipitated using the pY37-H2B antibody followed by qPCR. […] Similar data was obtained with another human GBM derived cell lines T98G (FIG. 44E).

The target in test [2] is T1, WEE1 (Homo sapiens, UniProt P30291). In words: Peptide Immunosandwich Assay (PIA) with purified WEE1. Format: biochemical. On the set-up: GST; purchased Invitrogen. Conditions: purified WEE1 protein (100 ng), 5 uM. On the procedure:
H2B Tyr37-phosphorylation was determined as described in the text.
In brief, Streptavidin coated 96-well plates (R&D systems) were incubated with biotinylated human histone H2B derived peptides […] (SEQ ID NO: 62, Y37 site is underlined). H2B derived phospho-peptide KRSRKESp[…] (SEQ ID NO: 63) was used as positive control. Any unbound areas on the plate were blocked with 3% BSA. Next, purified WEE1 protein (100 ng) prepared in kinase buffer (20 mM HEPES, 225 mM NaCl, 1% Triton X-100, 10% glycerol, phosphatase and protease inhibitors) supplemented with 1 uM ATP and 1 uM MgCl2. After 2 hours of incubation, plates were washed with phosphate buffered saline containing 0.1% Tween 20 (PBST) and reblocked in 3% BSA. The pY37-H2B or pTyr antibodies (at 1:1000 dilution) were added and incubated for 1 hour. Unbound antibodies were washed and HRP-conjugated anti-mouse secondary antibodies (1:5000) were added. The magnitude of phosphorylation was detected using developer solution (OPD tablets, Sigma) and after 20 minutes of incubation, the plates were read at 450 nm.
The Peptide Immunosandwich Assay was first validated using purified WEE1 protein (100 ng) and cancer derived cell lines (50 ug). […] PIA was also validated using cancer derived cells lines MDA-MB231 (low WEE1 activity) and LAPC4 cells (high WEE1 activity). […] As negative controls, H2B peptide alone or WEE1 enzyme alone were used. […]

The target in test [3] is T1, WEE1. Briefly: In vitro kinase assay, purified WEE1 and H2B. The test is classed as biochemical. On the set-up: GST; purchased Invitrogen. As to conditions: MK1775 0.625 μM, 1 hour at 30° C. The protocol: FIG. 13A is an immunoblot showing lysates from synchronized MEFs immunoprecipitated with pTyr37-H2B antibodies followed by immunoblotting with pTyr37-H2B antibody (top panel) or H2B antibody (bottom panel). FIG. 13B is an immunoblot showing cell lysates 6.30 hours post-release from H1975 cells synchronized by double thymidine alone (first column) or with 0.31 μM (second column), 0.62 μM (third column) and 1.25 μM (fourth column) MK1775 WEE1 inhibitor that were immunoprecipitated with pTyr37-H2B antibodies followed by immunoblotting with pTyr37-H2B, H2B, pTyr15-Cdc2, or Cdc2 antibodies. FIG. 13C is an immunoblot showing lysates collected at 0 and 6.30 hours post-release from synchronized MEFs transfected with control (first two columns) or WEE1 (last two columns) siRNAs that were immunoprecipitated with pTyr37-H2B antibodies followed by immunoblotting with pTyr37-H2B (top panel), H2B (second panel), WEE1 (third panel), or PTyr15-Cdc2 (bottom panel) antibodies. FIG. 13D is an immunoblot showing equimolar amounts of purified WEE1 (last three columns) and H2B (first three columns) proteins incubated in the presence (third column) or absence of WEE1 inhibitor (MK1775, 0.625 μM) for 1 hour at 30° C. and immunoblotted with pTyr37-H2B (top panel), H2B (middle panel), and WEE1 (bottom panel) antibodies. […]

A further test relates to IDH2 gene transcription. Briefly: qRT-PCR of IDH2 in cancer cell lines. The test is classed as cell-based. An excerpt:
(FIG. 42a-42e) RNA was isolated from cells treated with WEE1 inhibitor (or siRNA) followed by qRT-PCR using IDH2 and actin primers.
Total RNA was isolated followed by qRT-PCR with IDH2 and actin specific primers. As control, U118 cell line was used which has low levels of WEE1 (unpublished data).

T1 sequence (P30291 whole entry): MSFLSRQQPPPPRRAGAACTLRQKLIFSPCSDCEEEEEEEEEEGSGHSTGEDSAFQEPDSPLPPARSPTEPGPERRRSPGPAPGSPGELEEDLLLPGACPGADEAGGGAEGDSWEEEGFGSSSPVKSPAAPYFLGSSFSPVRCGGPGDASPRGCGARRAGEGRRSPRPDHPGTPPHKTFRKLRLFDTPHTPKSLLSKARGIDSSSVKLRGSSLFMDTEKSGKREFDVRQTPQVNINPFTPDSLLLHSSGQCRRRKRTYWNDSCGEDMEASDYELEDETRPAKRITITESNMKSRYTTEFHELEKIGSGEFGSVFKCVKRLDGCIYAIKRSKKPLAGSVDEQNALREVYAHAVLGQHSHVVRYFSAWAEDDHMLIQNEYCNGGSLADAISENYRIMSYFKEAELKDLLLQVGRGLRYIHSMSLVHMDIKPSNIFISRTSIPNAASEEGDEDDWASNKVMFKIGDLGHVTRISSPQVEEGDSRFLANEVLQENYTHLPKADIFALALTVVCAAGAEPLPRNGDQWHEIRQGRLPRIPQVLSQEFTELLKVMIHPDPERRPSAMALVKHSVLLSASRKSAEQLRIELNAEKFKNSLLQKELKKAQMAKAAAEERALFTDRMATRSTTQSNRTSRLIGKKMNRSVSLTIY

As for `C=CCn1c(=O)c2cnc(Nc3ccc(N4CCN(C)CC4)cc3)nc2n1-c1cccc(C(C)(C)O)n1` [MK-1775], the 5-hmC levels entry is listed as “remained unchanged” in the test on 5-hmC levels (HEK293 cells, 0.6 μM, 24 hr); “significant upregulation” with 5-hmC levels (SBC12 melanoma derived cell line, 0.6 μM, 24 hr); “significant upregulation” with 5-hmC levels (T98G GBM-derived cells, 0.6 μM, 24 hr); “restored” in the test with 5-hmC levels (summary statement). In the test with 5-hmC levels (immunoblotting with 5-mC antibodies, 0.6 μM, 24 hr), the 5-mC levels entry is listed as “concomitant decrease”. Moreover, the “pY37-H2B marks within IDH2” value in test [1] was “completely erased”. In addition, the pY37-H2B levels entry on WEE1 [2] is reported as “significant decrease”. The “H2B pTyr37-phosphorylation by purified WEE1” value at WEE1 [3] is listed as “abrogated”. Also, the “transcript levels of the IDH2 gene” value was “significant increase” in the test with IDH2 gene transcription (LNCaP (prostate), 1 uM, 24 hours); “significant increase” with IDH2 gene transcription (U87 (GBM), 1 uM, 24 hours); “significant increase” in the test on IDH2 gene transcription (WM1366 (melanoma), 1 uM, 24 hours). The “IDH2 mRNA” value in the test with IDH2 gene transcription (U118 cell line (low levels of WEE1), 1 uM, 24 hours) is “not increased”. For the same compound, the IDH2 transcript levels result with IDH2 gene transcription (summary statement) was “increased”.
